From publication PMC2702281, “HLA-A*0201-restricted CTL epitope of a novel osteosarcoma antigen, papillomavirus binding factor” (Journal of Translational Medicine, 2009)
One block for each sequence: values may come before it.

Columns and labels:
HLA-A*0201 molecules = HLA-A*0201 molecules (Homo sapiens, UniProt P04439, D140Y/D185E/D98H/E176V/E277Q/G131W/G231S/I119V/I121R/I166T/I218V/L300P/L318F/N151K/N90K/P208A/P217A/Q86G/Q94H/R138H/R169H/T345S); assay: T2 cell surface HLA class I stabilization assay; type: cell-based; settings: for HLA-peptide binding affinity (%MFI increase ± SD): peptide 50 μg/ml, T2 cells, anti-HLA-A2 mAb BB7.2 staining, triplicate, mean ± SD
[1] = system: PBF A2.2-specific CD8+ T cells; assay: LD/MLPC followed by tetramer-based frequency analysis; type: cell-based, human
From the text: Prior to frequency analysis and cytotoxicity assays, PBMC of patients were subjected to mixed lymphocyte peptide culture under limiting dilution conditions (LD/MLPC) according to the method described by Karanikas et al. with some modifications. LD/MLPC aims to seed at most one CTL precursor cell per well and induces proliferation of the precursor cell by subsequent mixed lymphocyte peptide culture. For this purpose, the appropriate number of PBMC and CD8^+ cells per well is considered to be 1 × 10^5–2 × 10^5 [17, 24].
PBMCs were used as a source of responder cells in the initial five subjects (Patients 1 and 2 and three healthy donors) and CD8^+ cells were used in the following three patients (Patients 3–5) [see Additional file 2].
PBMC obtained from peripheral blood samples (50 ml) of Patients 1 and 2 and three healthy donors were suspended in AIM-V (Invitrogen Corp., Carlsbad, CA) supplemented with 1% human serum (HS). These cells were incubated for 60 min at room temperature with peptide PBF A2.2 (50 μg/ml). Peptide-pulsed PBMC were seeded at 2 × 10^5 cells/200 μl/well into round-bottom 96-microwell plates in AIM-V with 10%HS, IL-2 (20 U/ml; a kind gift from Takeda Chemical Industries, Ltd., Osaka Japan) and IL-7 (10 ng/ml; R&D Systems, Minneapolis, Minnesota, USA), and incubated. On day 7, half of the medium was replaced with fresh AIM-V containing IL-2, IL-7 and the same peptides. The cell cultures were maintained by adding fresh AIM-V containing IL-2. On days 14–21, they were subjected to tetramer-based frequency analysis.
PBMC obtained from Patients 3–5 were separated into CD8^+ cells and CD8^- cells using magnetic anti-CD8 microbeads (Miltenyi Biotec, Gladbach, Germany). CD8^- cells were pulsed with the PBF A2.2 peptide for 60 min. Half of the CD8^- cells were cryopreserved at -80°C for the second stimulation. CD8^+ cells (1.0–2.1 × 10^5/well) and irradiated PBF A2.2 peptide-pulsed CD8^- cells (1–5 × 10^5/well) were cocultured in 48-well cell culture plates in 500 μl of AIM-V with 10%HS, IL-2 and IL-7. On day 7, the second stimulation was performed by adding irradiated peptide-pulsed CD8^- cells to each culture well in 500 μl of AIM-V with 10%HS, IL-2 and IL-7. On days 13–23, they were subjected to tetramer-based frequency analysis.
An FITC-conjugated HLA-A*0201/HIV tetramer (here termed the control tetramer) and a PE-conjugated HLA-A*0201/PBF A2.2 tetramer (A2/PBF A2.2 tetramer) were constructed by Medical & Biological Laboratories Co., Ltd. (Tokyo, Japan). PBMCs from patients were stimulated with the PBF A2.2 peptide by using the LD/MLPC procedure as described above. From each microwell containing 200 μl of the microculture pool, 100 μl was transferred to a V-bottom microwell and washed. To the spin-down pellets, the control tetramer and A2/PBF A2.2 tetramer (10 nM in 25 μl of PBS) were added in combination and incubated for 15 min at room temperature. Then a PE-Cy5-conjugated anti-CD8 antibody (eBioscience, San Diego, California, USA) was added (dilution of 1:30 in 25 μl of PBS containing the control tetramer and A2/PBF A2.2 tetramer) and incubated for another 15 min. The cells were washed in PBS twice, fixed with 0.5% formaldehyde, and analyzed by flow cytometry using FACScan and CellQuest software (Becton Dickinson, San Jose, California, USA). CD8^+ living cells were gated and the cells labeled with the A2/PBF A2.2 tetramer were referred to as tetramer-positive cells. Tetramer-positive cells in each well are theoretically derived from a single CTL precursor, regardless of the number (percentage) of tetramer-positive cells. Accordingly, the number of tetramer-positive wells represents the number of CTL precursors. The frequency of anti-PBF A2.2 CTLs was evaluated using the following calculation: (number of tetramer-positive wells)/[(total number of tested wells) × (initial number of CD8+ cells per well)].

[2] = three tetramer-positive patients with osteosarcoma

Sequence: FETDPDPFLL [Peptide A2.6]
- HLA-peptide binding affinity (%MFI increase ± SD) (HLA-A*0201 molecules): 22.5 ± 9.6 %MFI increase

Sequence: FQPGQKVYV [Peptide A2.3]
- HLA-peptide binding affinity (%MFI increase ± SD) (HLA-A*0201 molecules): 2.7 ± 9.4 %MFI increase

Sequence: WLLEQKLQV [Peptide A2.1]
- HLA-peptide binding affinity (%MFI increase ± SD) (HLA-A*0201 molecules): 38.8 ± 15.5 %MFI increase

Sequence: GLVEQHSWM [Peptide A2.4]
- HLA-peptide binding affinity (%MFI increase ± SD) (HLA-A*0201 molecules): 1.8 ± 9.9 %MFI increase

Sequence: MMAAMVLTSL [Peptide A2.5]
- HLA-peptide binding affinity (%MFI increase ± SD) (HLA-A*0201 molecules): 10.5 ± 12.0 %MFI increase

Sequence: FETDPDPFL [Peptide A2.7]
- HLA-peptide binding affinity (%MFI increase ± SD) (HLA-A*0201 molecules): 8.2 ± 19.1 %MFI increase

Sequence: ALPSFQIPV [Peptide A2.2]
- %MFI increase in peptide titration experiments (HLA-A*0201 molecules; HLA class I stabilization assay at indicated concentrations, Fig. 1): dose-dependent increases of %MFI
- %MFI increase compared among the peptides (HLA-A*0201 molecules; HLA class I stabilization assay, ten PBF-derived peptides): highest %MFI increase among the peptides
- HLA-peptide binding affinity (%MFI increase ± SD) (HLA-A*0201 molecules): 74.5 ± 6.6 %MFI increase
- Frequency of CTL precursors calculated as 2/5.4 × 10^6 ([1]; Patient 4, 36 wells at 1.5 × 10^5 CD8+ cells per well, tetramer analysis on day 21, Fig. 2): 3.7 × 10^-7
- Patients in whom A2/PBF A2.2 tetramer-positive T cells were detected ([1]; five HLA-A*0201+ patients with PBF-positive osteosarcoma): three of the five patients
- Frequencies of the PBF A2.2-specific CD8+ T cells, average ([1]; three healthy donors): 2 × 10^-7
- Frequencies of the PBF A2.2-specific CD8+ T cells, range ([1]; three healthy donors): 1 × 10^-7 to 3 × 10^-7
- Frequencies of the PBF A2.2-specific CD8+ T cells, average [1, 2]: 2 × 10^-6
- Frequencies of the PBF A2.2-specific CD8+ T cells, range [1, 2]: 2 × 10^-7 to 5 × 10^-6
- Cytotoxicity of five CTL clones (1B1, 1D7, 1E1, 1F4, 1F7) against peptide-pulsed T2 cells (T2 cells): All five CTL clones lysed PBF A2.2 peptide-pulsed T2 cells

More lines, now with the values ahead:

- HLA-peptide binding affinity (%MFI increase ± SD) (HLA-A*0201 molecules): 10.2 ± 8.2 %MFI increase
Sequence: YQALPSFQI [Peptide A2.9]

- HLA-peptide binding affinity (%MFI increase ± SD) (HLA-A*0201 molecules): -1.5 ± 2.5 %MFI increase
Sequence: SMTGLPLSAL [Peptide A2.8]

- HLA-peptide binding affinity (%MFI increase ± SD) (HLA-A*0201 molecules): 4.4 ± 9.9 %MFI increase
Sequence: KVLRSIVGI [Peptide A2.10]
